Tests used:
[1] = test system: EPISKIN model of reconstructed human epidermis; assay: MTT cell viability test on EPISKIN model (in vitro skin irritation); type: cell-based
Method: 2.1.1 EPISKIN™ model (EPISKIN-SM™), EPISKIN SNC Lyon, France, is a model of reconstructed human epidermis. The human keratinocytes are seeded on a dermal substitute consisting of a collagen type I matrix coated with type IV collagen. A highly differentiated and stratified epidermis model is obtained after a 13-day culture period comprising the basal, suprabasal, spinous and granular layers and a functional stratum corneum (Tinois et al., 1984). The model is used in the skin irritation applying the substances being examined at topical level to the epidermis and subsequently assessing cell viability.
10 μl of the solutions were applied to the surface of the epidermis for 15 minutes, followed by 42 hours of recovery.
VitroScreen is implementing a quality system in compliance with the GLP regulations (2004/9/CE and 2004/10/CE) in preparation of the GLP Audit and relative certification. The methods utilized in the study were entered in the list of VitroScreen methods. Following a validation study coordinated by ECVAM the Episkin test system was validated by the ESAC (27/04/07); this uses a model of epidermis reconstructed in vitro—EPISKIN—to assess skin irritation produced by chemical substances for hazard identification and R38 classification: cell viability is quantified after 15 min of exposure +42 h of recovery. Quantification of IL-1α with the ELISA method is part of the validated method for skin irritation as it allows the substances to be distinguished even when there is no decrease in cell viability.
The MTT test is considered an international standard for quantification of cytotoxicity (ISO 10993-5). The method allows quantification of the cytotoxic effect produced by the product through measuring cell viability. Cytotoxicity is quantified by measuring the decrease in cell viability compared to an untreated negative control. It is based on the metabolizing reaction which takes place between the salt of tetrazolium (MTT) and the mitochondrial enzymes (succinate dehydrogenase) after contact with the product for the various treatment times: only the viable cell can transform the salt of tetrazolium into the insoluble derivative (Formazan), reaction which is highlighted by the formation of a purple color at the bottom of the insert.
Metabolization of the salt takes place at the level of the basal cells of the epithelium in the area above the polycarbonate support.
The purple colored derivative is extracted in isopropanol and quantified spectrophotometrically at 570 nm.
At the end of treatment and post-incubation with the substances being examined, the EPISKIN models are transferred to 12 well plates, filled with 2 ml of MTT (used at the concentration of 0.3 mg/ml in the assay medium) and the test is conducted for 3 hours at 37° C., 5% CO2, 90% humidity.
The formazan is extracted from the tissue in Eppendorf tubes with 500 μl of acidified isopropanol (0.04 N HCL final concentration) with incubation in the dark under stirring for 4 hours at room temperature.
10 μl of the substances being examined, of the positive (SDS 5%) and negative (sterile water) control are applied to the surface of the epidermis.
The treated tissues are maintained at room temperature for 15 minutes (±0.5 minutes).
At the end of incubation the tissues are washed 2-3 times with PBS and placed in an incubator with fresh maintenance medium for 42 hours of recovery.
The TEER is measured post-treatment and the MTT test is then conducted for 3 hours at 37° C. and formazan is subsequently extracted for 4 hours as described in the methods.
At the end of the test 2×200 μl of sample for each well are transferred to 96 well plates and read spectrophotometrically at 570 nm.
The optical densities are recorded directly by the Microplate autoreader (TECAN INFINITE M-200), exported to Excel files and the cell viability % is calculated compared to the optical density of the negative control. […]

[2] = pH of the prepared solutions; type: physicochemical; conditions: positive control solution
Method: The solutions are prepared and the pH is measured.

SMILES | irritation classification by predictive model ([1]; MAG at 2%) | cytotoxic effects ([1]; MAG at 2%, 15 min exposure + 42 h recovery) | irritation classification by predictive model ([1]; MAG at 2%, listed as Mono-Ammonium Glycyrrhizate) | irritation classification by predictive model ([1]; MAG at 5%) | loss of viability ([1]; MAG at 5%, 15 min exposure + 42 h recovery) [%] | irritation classification by predictive model ([1]; MAG at 5%, listed as Mono-Ammonium Glycyrrhizate) | reduction in viability ([1]; SDS 5%, 10 μl, 15 min exposure + 42 h recovery, vs negative control) [%] | irritation classification by predictive model ([1]; solution as tested, 15 min exposure + 42 h recovery, cut-off 50% viability, sulfate) | pH [2]
CC1(C)[C@@H](O[C@H]2O[C@H](C(=O)O)[C@@H](O)[C@H](O)[C@H]2O[C@@H]2O[C@H](C(=O)O)[C@@H](O)[C@H](O)[C@H]2O)CC[C@]2(C)[C@H]3C(=O)C=C4[C@@H]5C[C@@](C)(C(=O)O)CC[C@]5(C)CC[C@@]4(C)[C@]3(C)CC[C@@H]12.N [MAG, monoammonium glycyrrhizinate] | non-irritant | no cytotoxic effects | NON IRRITANT (NI) | non-irritant | 20 | NON IRRITANT (NI) | – | – | –
CCCCCCCCCCCCOS(=O)(=O)[O-].[Na+] [SDS 5%, sodium dodecyl sulfate, reference compound] | – | – | – | – | – | – | 80 | R38 irritant | 5.80
